From patent USRE38424E1 (The United States of America as represented by the …, priority 1994, dated 2004)
Like-named read-outs stand apart in the source and are kept apart here.

Experiments:
[1] = Source text: (§1) A total of 47 patients were included in this study. All patients had recurrent advanced stage epithelial ovarian cancer confirmed on histologic review at the Laboratory of Pathology, National Cancer Institute (NCI). Borderline, mixed, and germ cell histologies were excluded.
Pretreatment evaluation consisted of a physical examination, laboratory studies with CA-125, radiographic evaluation by CT scan, baseline electromyogram with nerve conduction velocity studies (EMG/NCV), creatinine clearance, chest radiograph, and EKG. On-study staging was completed within two weeks of starting therapy. Physical examination and laboratory evaluations were repeated with every cycle, except for CBC which was evaluated twice weekly. Patients underwent restaging every two cycles (i.e., every 6 weeks), which included the repetition of any radiographic studies that were abnormal upon entry. EMG/NCV studies were repeated as indicated to determine the presence of any progressive neurologic toxicity.
The G-CSF was supplied to the Division of Cancer Treatment by Amgen, Inc. (Thousand Oaks, Calif.). This G-CSF administration continued until the absolute granulocyte count of the patient was greater than 1500/μl for two consecutive days after the nadir (i.e., the total count for the two days was at least 3000/μl ) or until the total white blood cell count was greater than 30,000/μl. Patients with responding disease or stable disease continued on the study and were reevaluated at two cycle intervals.
Patients manifesting second or third degree heart block had remaining cycles given in the intensive care unit with appropriate interventions. Antiemetics were given as needed.
More specifically, this was undertaken by increasing the dose of G-CSF administered on the next treatment cycle.
The particulars pertaining to the flexible G-CSF dosage regimen are as follows. […] The dose of G-CSF was reduced by 5 μg/kg/day if severe bone pain occurred at these higher G-CSF dosage levels, i.e., at levels greater than or equal to 10 μg/kg/day.

[2] = test system: recurrent advanced stage epithelial ovarian cancer; assay: Phase II dose intense taxol with G-CSF support: disease response and survival; type: in vivo, human
Source text: as §1
A complete response (CR) was defined as patients having a complete resolution of disease as determined by both physical and radiographic examination as well as normalization of CA-125 lasting at least 4 weeks. A partial response (PR) patient was defined as having a greater than 50% reduction in the sum of the products of bidimensional measurements of all sites of disease as determined by both physical and radiographic analysis which lasted at least 4 weeks, and wherein no development of new lesions was observed. A minor response (MR) patient was defined as having greater than 25% but less than 50% reduction in the sum of the products of the perpendicular diameters of all measurable lesions and wherein no new sites of disease were observed. A stable disease (SD) was defined as patients having less than a 25% increase or less than a 25% reduction in sum of the product of the perpendicular diameters of all measurable lesions in response to therapy, without development of new lesions, for at least 4 weeks. Progressive disease (PD) was defined as patients having an increase of at least 25% in the sum of the products of the perpendicular diameters of all measurable lesions and/or the development of new lesions.
CA-125 levels were followed in all patients but were not used to define a patient's response except in one situation.

ovarian cancer [3] = assay: Published studies of taxol without G-CSF: response rate; type: in vivo, human; conditions: 33 of 110 patients
Source text: This agent is derived from the bark of the Western Yew tree, taxus brevifolia (Chabner, PPO Update, 5 (9), 1-10 (1991); Rowinsky et al., J. Nat'Cancer Inst., 82, 1247-1259 (1990)).

ovarian cancer [4] = conditions: cited from earlier work; for Response rate: taxol without G-CSF
[5] = in vivo; cited from earlier work
[6] = Nerve conduction studies in two patients with grade 3 polyneuropathy; conditions: for MAP Amplitude Percent Decrement / MAP Amplitude Lowest on Taxol: Motor; for SAP Amplitude Percent Decrement / SAP Amplitude Lowest on Taxol: Sensory
Method: In two of these patients who developed clinical evidence of neuropathy, the studies were repeated on three occasions in case 1 and once in case 2. In all 12 patients, maximal motor and sensory conduction velocities and response amplitudes were recorded for the median or ulnar nerve in the upper limb and for the peroneal and sural nerves in the lower limb.

[7] = female, human, in vivo, 1 cycle
[8] = female, human, in vivo, 21 days (per cycle)
[9] = dose intense taxol with G-CSF, 44 assessable patients
[10] = dose intense taxol with G-CSF, 44 assessable patients, listed as taxol
[11] = nineteen patients treated until CR or progression

CC(=O)O[C@H]1C(=O)[C@@]2(C)[C@H]([C@H](OC(=O)c3ccccc3)[C@]3(O)C[C@H](OC(=O)[C@H](O)[C@@H](NC(=O)c4ccccc4)c4ccccc4)C(C)=C1C3(C)C)[C@]1(OC(C)=O)CO[C@@H]1C[C@@H]2O [Taxol, taxol]
Alopecia, Grade 1 & 2 ([1]; female, human, in vivo): 38 No. (%)
Bone Pain, Grade 3 & 4 ([1]; female, human, in vivo): 3 (6) No. (%)
Cardiac toxicity, Grade 1 & 2 ([1]; female, human, in vivo): 35 (74) No. (%)
Constitutional toxicity, Grade 1 & 2 ([1]; female, human, in vivo): 43 No. (%)
Constitutional toxicity, Grade 3 & 4 ([1]; female, human, in vivo): 4 (9) No. (%)
Diarrhea, Grade 1 & 2 ([1]; female, human, in vivo): 29 No. (%)
Diarrhea, Grade 3 & 4 ([1]; female, human, in vivo): 2 (4) No. (%)
Hematologic toxicity, Anemia, Grade 1 & 2 ([1]; female, human, in vivo): 17 (47) No. (%)
Hematologic toxicity, Anemia, Grade 3 & 4 ([1]; female, human, in vivo): 30 (47) No. (%)
Hematologic toxicity, Granulocytes, Grade 1 & 2 ([1]; female, human, in vivo): 1 (2) No. (%)
Hematologic toxicity, Granulocytes, Grade 3 & 4 ([1]; female, human, in vivo): 46 (98) No. (%)
Hematologic toxicity, Platelets, Grade 1 & 2 ([1]; female, human, in vivo): 24 (51) No. (%)
Hematologic toxicity, Platelets, Grade 3 & 4 ([1]; female, human, in vivo): 19 (40) No. (%)
Hypersensitivity Reactions, Grade 1 & 2 ([1]; female, human, in vivo): 31 (66) No. (%)
Hypersensitivity Reactions, Grade 3 & 4 ([1]; female, human, in vivo): 2 (4) No. (%)
Median time of neutrophil nadir ([1]; female, human, in vivo): 7 days
Mucositis, Grade 1 & 2 ([1]; female, human, in vivo): 31 (66) No. (%)
Mucositis, Grade 3 & 4 ([1]; female, human, in vivo): 3 (6) No. (%)
Myalgias, Grade 1 & 2 ([1]; female, human, in vivo): 43 No. (%)
Neurologic toxicity, Grade 1 & 2 ([1]; female, human, in vivo): 36 (77) No. (%)
Neurologic toxicity, Grade 3 & 4 ([1]; female, human, in vivo): 3 (6) No. (%)
Patients who continued at the starting dosage combination throughout therapy ([1]; female, human, in vivo): 45%
Patients who continued on that dose combination ([1]; female, human, in vivo): 12 patients
Patients who required red blood cell transfusions ([1]; female, human, in vivo): 55%
Patients with Mobitz I block ([1]; female, human, in vivo): 4%
Patients with Mobitz II block ([1]; female, human, in vivo): 4%
Patients with dose reduction for taxol-induced peripheral neuropathy ([1]; female, human, in vivo): 3 patients
Patients with first degree atrioventricular block ([1]; female, human, in vivo): 4%
Patients with grade 3 and 4 hematologic toxicities ([1]; female, human, in vivo): 98%
Patients with mild ototoxicity ([1]; female, human, in vivo): 11%
Patients with myalgias and arthralgias (grades 1 and 2) ([1]; female, human, in vivo): less than 50%
Time of neutrophil nadir, range ([1]; female, human, in vivo): 5 to 11 days
Vomiting, Grade 1 & 2 ([1]; female, human, in vivo): 23 No. (%)
Median nadir heart rate [1, 7]: 52 bpm
Nadir heart rate, range [1, 7]: 38-59 bpm
Patients with asymptomatic sinus bradycardia [1, 7]: 34%
Cycles associated with neutropenia [1, 8]: 24%
Cycles complicated by fever and neutropenia [1, 8]: 10%
Episodes of complete heart block ([1]; in vivo): No episodes
Patients with hypersensitivity reactions ([1]; in vivo): Two
Patients with rapid atrial fibrillation requiring digitalization ([1]; in vivo): one
Patients with supraventricular tachycardia ([1]; in vivo): two
Treatment related death due to polymicrobial sepsis ([1]; one of 47 patients): 2%
Overall objective response rate ([2]; 21/44, 95% CI: 33-63%, taxol 250 mg/m^2/21 days with G-CSF): 48%
Survival at one year ([2]; 95% confidence interval, 25-67%): 45.3%
Median survival time ([2]; Kaplan-Meier, phase II): 11.5 months
CR, % of Cohort [2, 9]: 14%
CR, No. of Patients [2, 9]: 6
MR, % of Cohort [2, 9]: 11%
MR, No. of Patients [2, 9]: 5
NR, % of Cohort [2, 9]: 25%
NR, No. of Patients [2, 9]: 11
PR, % of Cohort [2, 9]: 34%
PR, No. of Patients [2, 9]: 15
CR, No. of Patients [2, 10]: Six
MR, No. of Patients [2, 10]: five
PR, No. of Patients [2, 10]: Fifteen
Median number of cycles required to reach an objective response [2, 11]: four
Number of cycles required to reach an objective response, range [2, 11]: two to eight
Objective response rate ([2]; taxol about 250 mg/m^2/ 21 days): about 50%
Increase in the response rate versus standard dose ([2]; taxol about 250 mg/m^2/ 21 days vs standard dose): 67%
Response rate, three combined studies (ovarian cancer [3]): 30%
Objective response rate (ovarian cancer [4]; "standard" dose of taxol (about 135 mg/m^2/ 21 days)): about 30%
Response rate (ovarian cancer [4]; Einzig et al.): 21%
Response rate (ovarian cancer [4]; Gynecologic Oncology Group (Thigpen et al.)): 36%
Response rate (ovarian cancer [4]; McGuire et al.): 33%
Patients with objective responses (ovarian cancer [4]; taxol 110 to 200 mg/m^2, cisplatin-sensitive and cisplatin-resistant advanced stage epithelial ovarian cancer): about 30%
Taxol dosage level above which severe neurotoxicity (peripheral neuropathy) is experienced [5]: above 300 mg/m^2/ 21 days
MAP Amplitude Percent Decrement ([6]; Median nerve, case 2): None
MAP Amplitude Lowest on Taxol ([6]; Median nerve, case 2, control 10.5 mV): 10.8 mV
MAP Amplitude Percent Decrement ([6]; Peroneal nerve, case 1): 49%
MAP Amplitude Lowest on Taxol ([6]; Peroneal nerve, case 1, control 3.9 mV): 1.9 mV
MAP Amplitude Percent Decrement ([6]; Peroneal nerve, case 2): None
MAP Amplitude Lowest on Taxol ([6]; Peroneal nerve, case 2, control 2.7 mV): 2.7 mV
MAP Amplitude Percent Decrement ([6]; Ulnar nerve, case 1): None
MAP Amplitude Lowest on Taxol ([6]; Ulnar nerve, case 1, control 6.9 mV): 7.1 mV
SAP Amplitude Percent Decrement ([6]; Median nerve, case 2): 13%
SAP Amplitude Lowest on Taxol ([6]; Median nerve, case 2, control 69 μV): 60 μV
SAP Amplitude Percent Decrement ([6]; Sural nerve, case 1): 75%
SAP Amplitude Lowest on Taxol ([6]; Sural nerve, case 1, control 8 μV): 2 μV
SAP Amplitude Percent Decrement ([6]; Sural nerve, case 2): 44%
SAP Amplitude Lowest on Taxol ([6]; Sural nerve, case 2, control 32 μV): 18 μV
SAP Amplitude Percent Decrement ([6]; Ulnar nerve, case 1): 62%
SAP Amplitude Lowest on Taxol ([6]; Ulnar nerve, case 1, control 19 μV): 6 μV
